target: T1, P2X7 receptor (Homo sapiens, UniProt Q99572); assay: IL-1β release assay in differentiated THP-1 cells stimulated with BzATP (Example 9); type: cell-based; design: inhibition: dose or concentration left out as unconfirmed; settings: 0.1 μM compound; differentiated THP-1 cells, BzATP 250 uM; "*" class symbols; read-out: IL-1β % Inhib. ("*" symbols: at 0.1 μM)
T1 construct: host or cells: THP-1 cells differentiated with LPS and IFN-γ
T1 sequence (Q99572 1-595): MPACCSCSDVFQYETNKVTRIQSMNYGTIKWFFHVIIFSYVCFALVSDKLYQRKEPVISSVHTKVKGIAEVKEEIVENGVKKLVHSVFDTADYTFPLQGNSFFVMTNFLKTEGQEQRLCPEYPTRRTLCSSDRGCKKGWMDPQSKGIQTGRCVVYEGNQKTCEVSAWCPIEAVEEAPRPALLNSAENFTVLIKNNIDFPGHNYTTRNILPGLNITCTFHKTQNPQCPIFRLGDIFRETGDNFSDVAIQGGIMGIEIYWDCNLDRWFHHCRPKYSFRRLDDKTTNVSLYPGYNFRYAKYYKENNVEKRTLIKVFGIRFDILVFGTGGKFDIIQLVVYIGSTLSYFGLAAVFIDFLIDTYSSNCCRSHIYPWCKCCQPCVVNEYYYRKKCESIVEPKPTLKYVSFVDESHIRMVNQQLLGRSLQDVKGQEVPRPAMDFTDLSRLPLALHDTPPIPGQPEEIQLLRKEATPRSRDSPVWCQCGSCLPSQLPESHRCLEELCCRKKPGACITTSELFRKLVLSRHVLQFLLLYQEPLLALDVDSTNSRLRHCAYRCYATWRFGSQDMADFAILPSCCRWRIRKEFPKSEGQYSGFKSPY
Method: THP-1 cells (ATCC Cat # 285-IF-100) are plated in 96 well plates at a concentration of 200,000 cells per well and allowed to differentiate in RPMI-1640 media (ATCC Cat # 30-2001) containing 10% FBS, 100 IU/mL penicillin, 100 ug/mL streptomycin, 100 ng/mL LPS and 100 ng/mL IFN-γ for 16 hours. Following differentiation, the cells are treated for an additional 2 hours in RPMI-1640 media containing 100 IU/mL penicillin, 100 ug/mL streptomycin and fresh LPS at 100 ng/mL. The cells are then pretreated for 30 minutes with the compound of interest at the appropriate concentration in RPMI media containing 100 IU/mL penicillin, 100 ug/mL streptomycin. Following the pretreatment 2′,3′-O-(4-benzoylbenzoyl)-adenosine 5′-triphosphate (Sigma Aldrich Cat # B6396) is added to a final concentration of 250 uM and the cells are incubated for an additional 45 minutes. 30 uL of cell supernatant is then collected and IL-1β levels determined via ELISA (R&D systems Cat. # HSLB50) according to manufacturer's recommendations using the Tecan Safire plate reader. Background adjusted IL-1β levels of drug treated and non-treated cells are used to calculate the percent inhibition.
The compounds set forth in Table 1 were tested for activity in a cellular model as described herein. Specifically, cells were pretreated with differing amounts of the compound under test and released IL-1β determined as in Example 9, above. Measurements were made and IC50 values, presented in Table 2, below, were determined by fitting the data to a four parameter logistic equation using GraphPad Prism software (GraphPad Software, Inc). The equation may be expressed by the following formula: Y=Bottom+(Top−Bottom)/(1+10^((Log EC50−X)*HillSlope)) Where X is the logarithm of concentration, Y is the response and Y starts at Bottom and goes to Top with a sigmoid shape.

Row | inhibition at 0.1 µM [%] | Compound
1 | 0 to 25 | Cc1cc(C)cc(CC(=O)Nc2cccc3c(=O)n(Cc4ccc(OC(F)(F)F)cc4)ccc23)c1 [Compound 1599]
2 | 0 to 25 | Cc1cccc(CCC(=O)Nc2cccc3c(=O)n(Cc4ccc(OC(F)(F)F)cc4)ccc23)c1 [Compound 1606]

same assay, conditions: 0.1 μM compound; differentiated THP-1 cells, BzATP 250 uM; symbols * to ****; read-out: IL-1β % Inhib. (asterisk symbols: at 0.1 μM)

Row | inhibition at 0.1 µM [%] | Compound
3 | 51 to 75 | COc1cc(OC)cc(C(=O)Nc2cccc3c(=O)n(Cc4cccnc4)ccc23)c1 [Compound 1346]
4 | 0 to 25 | COc1cc(OC)cc(C(=O)Nc2cccc3c(=O)n(CC(C)(C)C)ccc23)c1 [Compound 1245]

same assay, conditions: 0.3 μM compound; differentiated THP-1 cells, BzATP 250 uM; "+" class symbols; read-out: IL-1β % Inhib. @ 0.3 μM

Row | inhibition at 0.3 µM [%] | Compound
5 | 0 to 25 | CN(C)CCn1ccc2c(NC(=O)C3(c4ccc(Cl)cc4)CCCC3)cccc2c1=O [Compound 1614]
6 | ≥ 76 | CS(=O)(=O)CCn1ccc2c(NC(=O)Cc3ccc(Cl)c(C(F)(F)F)c3)cccc2c1=O [Compound 1630, 2-(4-Chloro-3-trifluoromethyl-phenyl)-N-[2-(2-methanesulfonyl-ethyl)-1-oxo-1,2-dihydro-isoquinolin-5-yl]acetamide]
7 | 0 to 25 | O=C(Cc1cccc(C(F)(F)F)c1F)Nc1cccc2c(=O)n(Cc3ccc(C(F)(F)F)nc3)ccc12 [Compound 1626]
8 | 0 to 25 | CO[C@](C(=O)Nc1cccc2c(=O)n(CCN(C)C)ccc12)(c1ccccc1)C(F)(F)F [Compound 1616]

same assay, conditions: 0.3 μM compound; differentiated THP-1 cells, BzATP 250 uM; '+' class symbols; read-out: IL-1β % Inhib. @ 0.3 μM

Row | inhibition at 0.3 µM [%] | Compound
9 | 0 to 25 | COc1ccc(C(=O)Nc2cccc3c(=O)n(CCN(C)C)ccc23)cc1C [Compound 1184]
10 | 0 to 25 | CCOc1cccc(C(=O)Nc2cccc3c(=O)n(CC(C)(C)C)ccc23)c1 [Compound 1053]
11 | 0 to 25 | COc1cccc(CCC(=O)Nc2cccc3c(=O)n(CC(C)(C)C)ccc23)c1 [Compound 1049]
12 | 0 to 25 | CN(C)CCn1ccc2c(NC(=O)Cc3ccccc3Cl)cccc2c1=O [Compound 1155]
13 | 51 to 75 | CN(C)CCn1ccc2c(NC(=O)CCc3cccc(Cl)c3)cccc2c1=O [Compound 1186]
14 | 0 to 25 | Cc1cccc(C(=O)Nc2cccc3c(=O)n(CCN(C)C)ccc23)c1C [Compound 1140]
15 | 0 to 25 | COc1ccc(CC(=O)Nc2cccc3c(=O)n(CC4CCOCC4)ccc23)c(OC)c1 [Compound 1123]
16 | 0 to 25 | O=C(Nc1cccc2c(=O)n(CCN3CCOCC3)ccc12)c1ccc(-c2ccccc2)o1 [Compound 1040]
17 | ≥ 76 | Cc1ccc(CC(=O)Nc2cccc3c(=O)n(CCN(C)C)ccc23)cc1 [Compound 1005]
18 | 0 to 25 | Cc1cccc(C(=O)Nc2cccc3c(=O)n(CCN(C)C)ccc23)c1Cl [Compound 1183]
19 | 0 to 25 | COc1cc(OC)cc(C(=O)Nc2cccc3c(=O)n(CC4CCOCC4)ccc23)c1 [Compound 1089]
20 | 0 to 25 | Cc1cc(Cl)ccc1C(=O)Nc1cccc2c(=O)n(CC3CCOCC3)ccc12 [Compound 1114]
21 | 0 to 25 | COc1ccc(CCC(=O)Nc2cccc3c(=O)n(CC4CCOCC4)ccc23)cc1 [Compound 1095]
22 | 0 to 25 | O=C(Nc1cccc2c(=O)n(CC3CCOCC3)ccc12)c1cc2cc(Cl)ccc2o1 [Compound 1131]
23 | 0 to 25 | COc1ccc(C(=O)Nc2cccc3c(=O)n(Cc4cccnc4)ccc23)c(C)c1 [Compound 1073]
24 | 0 to 25 | COc1cccc(CCC(=O)Nc2cccc3c(=O)n(Cc4cccnc4)ccc23)c1 [Compound 1075]
25 | 0 to 25 | Cc1ccc(C)c(C(=O)Nc2cccc3c(=O)n(CC4CCOCC4)ccc23)c1 [Compound 1088]
26 | 0 to 25 | O=C(Nc1cccc2c(=O)n(CC3CCOCC3)ccc12)c1cccc2ccccc12 [Compound 1096]

same assay, conditions: 0.3 μM compound; differentiated THP-1 cells, BzATP 250 uM; symbols + to ++++; read-out: IL-1β % Inhib. @ 0.3 μM

Row | inhibition at 0.3 µM [%] | Compound
27 | 0 to 25 | COc1ccccc1CC(=O)Nc1cccc2c(=O)n(CC(C)(C)C)ccc12 [Compound 1254]
28 | 26 to 50 | COc1cc(CC(=O)Nc2cccc3c(=O)n(CCN4CCOCC4)ccc23)cc(OC)c1 [Compound 1218]
29 | 0 to 25 | CC(C)(C)Cn1ccc2c(NC(=O)Cc3cccc4ccccc34)cccc2c1=O [Compound 1250]
30 | 0 to 25 | O=C(Nc1cccc2c(=O)n(Cc3cccnc3)ccc12)c1cccc2c1OCCO2 [Compound 1363]
31 | 26 to 50 | O=C(Nc1cccc2c(=O)n(CCN3CCOCC3)ccc12)c1cc2cc(Cl)ccc2o1 [Compound 1238]
32 | 0 to 25 | Cc1cccc(C(=O)Nc2cccc3c(=O)n(Cc4cccnc4)ccc23)c1Cl [Compound 1370]
33 | 0 to 25 | O=C(CCc1ccc(Cl)cc1)Nc1cccc2c(=O)n(CCN3CCOCC3)ccc12 [Compound 1232]
34 | 0 to 25 | Cc1ccc(Cl)c(C(=O)Nc2cccc3c(=O)n(CCN4CCOCC4)ccc23)c1 [Compound 1235]
35 | 0 to 25 | Cc1ccccc1CC(=O)Nc1cccc2c(=O)n(CC(C)(C)C)ccc12 [Compound 1256]
36 | 0 to 25 | O=C(CCCc1ccccc1)Nc1cccc2c(=O)n(Cc3cccnc3)ccc12 [Compound 1357]
37 | 0 to 25 | COCCn1ccc2c(NC(=O)c3cccc(C)c3Cl)cccc2c1=O [Compound 1339]
38 | 0 to 25 | Cn1ccc2c(NC(=O)c3cc4ccccc4o3)cccc2c1=O [Compound 1300]
39 | 0 to 25 | COCCn1ccc2c(NC(=O)Cc3ccc(C)cc3)cccc2c1=O [Compound 1318]

same assay, conditions: THP-1; read-out: IL-1β % Inhib.

Row | inhibition [%] | Compound
40 | 0 to 25 | COCCn1ccc2c(NC(=O)Cc3cccc4ccccc34)cccc2c1=O [Compound 1433]
41 | 0 to 25 | Cc1ccc(Cl)c(C(=O)Nc2cccc3c(=O)n(CC4CCN(C)CC4)ccc23)c1 [Compound 1486]
42 | 0 to 25 | COCCn1ccc2c(NC(=O)c3ccc(C(C)(C)C)cc3)cccc2c1=O [Compound 1430]
43 | 0 to 25 | COc1cc(OC)cc(C(=O)Nc2cccc3c(=O)n(CC4CCN(C)CC4)ccc23)c1 [Compound 1464]
44 | 0 to 25 | COc1ccccc1CC(=O)Nc1cccc2c(=O)n(Cc3ccc(OC(F)(F)F)cc3)ccc12 [Compound 1577]
45 | 0 to 25 | COc1ccc(CC(=O)Nc2cccc3c(=O)n(Cc4ccc(OC(F)(F)F)cc4)ccc23)cc1OC [Compound 1581]
46 | 26 to 50 | COc1cccc(CCC(=O)Nc2cccc3c(=O)n(CC4CCN(C)CC4)ccc23)c1 [Compound 1459]
47 | 0 to 25 | Cc1cccc(C(=O)Nc2cccc3c(=O)n(CCCN4CCCC4=O)ccc23)c1C [Compound 1508]
48 | 0 to 25 | COc1ccc(CCC(=O)Nc2cccc3c(=O)n(CC4CCN(C)CC4)ccc23)cc1 [Compound 1468]
49 | 26 to 50 | COCCn1ccc2c(NC(=O)c3cc(C)ccc3C)cccc2c1=O [Compound 1427]
50 | 0 to 25 | COc1ccc(C(=O)Nc2cccc3c(=O)n(Cc4ccc(OC(F)(F)F)cc4)ccc23)c(C)c1 [Compound 1548]
51 | 0 to 25 | Cc1cc(Cl)ccc1C(=O)Nc1cccc2c(=O)n(Cc3ccc(OC(F)(F)F)cc3)ccc12 [Compound 1592]
52 | 0 to 25 | Cc1cc(C(=O)Nc2cccc3c(=O)n(Cc4cccnc4)ccc23)ccc1F [Compound 1454]
53 | 0 to 25 | Cc1cccc(CC(=O)Nc2cccc3c(=O)n(CCCN4CCCC4=O)ccc23)c1 [Compound 1521]
54 | 0 to 25 | Cc1cc(C)c(CC(=O)Nc2cccc3c(=O)n(CCCN4CCCC4=O)ccc23)c(C)c1 [Compound 1498]

same assay, conditions: THP-1 cells, BzATP-stimulated IL-1β release, four parameter logistic fit

Row | IC50 [nM] | Compound
55 | 39.6 | Cc1ccc(CC(=O)Nc2cccc3c(=O)n(CCN(C)C)ccc23)cc1 [Compound 1005]
56 | > 1000 | CN(C)CCn1ccc2c(NC(=O)C3(c4ccc(Cl)cc4)CCCC3)cccc2c1=O [Compound 1614]
57 | 108 | CS(=O)(=O)CCn1ccc2c(NC(=O)Cc3ccc(Cl)c(C(F)(F)F)c3)cccc2c1=O [Compound 1630, 2-(4-Chloro-3-trifluoromethyl-phenyl)-N-[2-(2-methanesulfonyl-ethyl)-1-oxo-1,2-dihydro-isoquinolin-5-yl]acetamide]
58 | > 1000 | O=C(Cc1cccc(C(F)(F)F)c1F)Nc1cccc2c(=O)n(Cc3ccc(C(F)(F)F)nc3)ccc12 [Compound 1626]
59 | > 1000 | CO[C@](C(=O)Nc1cccc2c(=O)n(CCN(C)C)ccc12)(c1ccccc1)C(F)(F)F [Compound 1616]

Reference: patent US8546579B2, “Bicycloheteroaryl compounds as P2X7 modulators and uses thereof” (Evotec (US) Inc., priority 2006, dated 2013)
